From US12227488B2, “Small molecule degraders of Helios and methods of use” (DANA-FARBER CANCER INSTITUTE, INC., priority 2018, dated 2025)

Columns and labels:
CRBN and Helios (IKZF2) = biological target: T1, CRBN and Helios (IKZF2) (Homo sapiens, UniProt Q96SW2+Q9UKS7); assay: TR-FRET dimerization assay (CRBN-IKZF2 ternary complex formation); format: binding; conditions: n=1
T1 construct: His (N); Strep (N)
Procedure, shortened: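 Compound-induced IKZF2 recruitment to CRBN was read as the 520/490 nm TR-FRET ratio after 15 min at rt. The mix held biotinylated IKZF2, BODIPY-labeled CRBN bound to DDB1 lacking the BPB propeller, tracer Tb-streptavidin and compound titrations; n=1, from ≥3 technical replicates per well.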

GSPT1 = GSPT1 (Homo sapiens, UniProt P15170+Q96SW2); assay: Cellular degradation assay, eGFP-GSPT1 fusion with mCherry reporter in Flp-In 293 cells; format: cell-based; design: expressed in transfected cells; host or cells: Flp-In 293; conditions: for GSPT1 GFP/RFP Relative Abundance: 5 h incubation, n=1
Sequence of GSPT1 (P15170 whole entry, the tested form may be a part): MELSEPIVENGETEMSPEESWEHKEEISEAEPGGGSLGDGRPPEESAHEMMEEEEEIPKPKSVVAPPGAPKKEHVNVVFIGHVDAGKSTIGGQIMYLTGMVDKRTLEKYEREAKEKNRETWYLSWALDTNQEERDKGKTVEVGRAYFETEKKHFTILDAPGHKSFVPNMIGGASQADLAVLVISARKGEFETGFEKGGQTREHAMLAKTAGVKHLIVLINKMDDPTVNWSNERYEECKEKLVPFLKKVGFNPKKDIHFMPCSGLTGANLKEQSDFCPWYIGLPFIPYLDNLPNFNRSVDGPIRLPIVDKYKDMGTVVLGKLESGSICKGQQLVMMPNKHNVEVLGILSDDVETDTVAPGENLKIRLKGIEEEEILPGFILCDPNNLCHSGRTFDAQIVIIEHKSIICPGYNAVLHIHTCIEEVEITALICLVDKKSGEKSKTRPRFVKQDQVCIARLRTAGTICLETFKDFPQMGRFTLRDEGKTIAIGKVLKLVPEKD
Sequence of GSPT1 (Q96SW2 whole entry, the tested form may be a part): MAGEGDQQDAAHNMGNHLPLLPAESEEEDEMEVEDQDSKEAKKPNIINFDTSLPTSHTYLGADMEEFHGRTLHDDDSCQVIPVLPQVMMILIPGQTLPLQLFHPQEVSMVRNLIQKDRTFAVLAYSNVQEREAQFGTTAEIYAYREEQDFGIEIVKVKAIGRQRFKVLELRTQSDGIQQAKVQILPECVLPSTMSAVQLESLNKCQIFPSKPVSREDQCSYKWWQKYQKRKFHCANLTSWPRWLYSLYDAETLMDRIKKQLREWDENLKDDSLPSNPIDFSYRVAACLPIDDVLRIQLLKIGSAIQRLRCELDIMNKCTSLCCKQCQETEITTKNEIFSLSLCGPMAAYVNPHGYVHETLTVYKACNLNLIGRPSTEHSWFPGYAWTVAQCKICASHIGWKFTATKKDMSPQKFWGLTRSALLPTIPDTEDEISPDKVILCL
Sequence of GSPT1 (Q16531 whole entry partner, the tested form may be a part): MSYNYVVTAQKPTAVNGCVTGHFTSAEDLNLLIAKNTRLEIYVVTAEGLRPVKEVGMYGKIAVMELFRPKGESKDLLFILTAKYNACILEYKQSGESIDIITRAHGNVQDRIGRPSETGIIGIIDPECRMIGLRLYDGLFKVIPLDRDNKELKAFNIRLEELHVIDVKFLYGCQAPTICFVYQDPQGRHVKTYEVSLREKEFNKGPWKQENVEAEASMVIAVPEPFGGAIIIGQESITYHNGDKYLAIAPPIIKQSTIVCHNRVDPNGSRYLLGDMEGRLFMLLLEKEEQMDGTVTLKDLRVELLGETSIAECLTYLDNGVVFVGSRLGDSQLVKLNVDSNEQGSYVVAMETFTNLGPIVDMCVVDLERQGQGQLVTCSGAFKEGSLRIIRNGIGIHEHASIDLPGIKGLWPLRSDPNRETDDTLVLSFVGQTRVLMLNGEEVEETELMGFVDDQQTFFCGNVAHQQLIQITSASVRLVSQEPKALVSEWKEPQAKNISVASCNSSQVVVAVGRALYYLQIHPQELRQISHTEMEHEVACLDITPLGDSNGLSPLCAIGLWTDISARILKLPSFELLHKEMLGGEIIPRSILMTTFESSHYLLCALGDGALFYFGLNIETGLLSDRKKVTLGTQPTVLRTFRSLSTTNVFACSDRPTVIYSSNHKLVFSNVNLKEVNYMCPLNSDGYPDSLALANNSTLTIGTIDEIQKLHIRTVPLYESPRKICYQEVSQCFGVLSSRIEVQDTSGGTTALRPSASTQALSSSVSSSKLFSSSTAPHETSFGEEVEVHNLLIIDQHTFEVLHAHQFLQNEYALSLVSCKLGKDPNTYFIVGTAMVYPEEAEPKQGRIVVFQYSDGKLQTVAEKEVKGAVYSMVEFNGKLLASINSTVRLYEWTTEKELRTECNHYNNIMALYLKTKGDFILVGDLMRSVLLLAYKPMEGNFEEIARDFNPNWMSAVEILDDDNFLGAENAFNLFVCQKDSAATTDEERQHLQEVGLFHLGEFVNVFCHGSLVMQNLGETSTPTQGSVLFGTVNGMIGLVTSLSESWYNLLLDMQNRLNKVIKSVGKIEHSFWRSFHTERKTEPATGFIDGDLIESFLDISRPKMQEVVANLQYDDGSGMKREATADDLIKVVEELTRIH
Description: IKZF1Δ, IKZF2Δ, GSPT1 and SALL4 ZnF1-2 were subcloned into mammalian pcDNA5/FRT Vector (Ampicillin and Hygromycin B resistant) modified to contain MCS-eGFP-P2A-mCherry. […] Following 2-3 passage cycle, FACS (FACSAria™ II, BD) was used to enrich for cells expressing eGFP and mCherry. Cells stably expressing the IKZF1Δ, IKZF2Δ, GSPT1 or SALL4 Znf1-2 GFP fusions with mCherry reporter were seeded at 30-50% confluency in 384-well plates with 50 μL FluoroBrite™ DMEM media (Thermo Fisher Scientific, A18967) containing 10% FBS per well a day before compound treatment. Compound titrations were dispensed using a D300e Digital Dispenser (HP), normalized to 0.5% DMSO, and incubated with cells for 5 hours.
The resulting images were analyzed using CellProfiler™. A series of image analysis steps (‘image analysis pipeline’) was constructed. First, the red and green channels were aligned and cropped to target the middle of each well (to avoid analysis of heavily clumped cells at the edges), and a background illumination function was calculated for both red and green channels of each well individually and subtracted to correct for illumination variations across the 384-well plate from various sources of error. An additional step was then applied to the green channel to suppress the analysis of large auto fluorescent artifacts and enhance the analysis of cell specific fluorescence by way of selecting for objects under a given size, 30 A.U., and with a given shape, speckles. mCherry-positive cells were then identified in the red channel filtering for objects between 8-60 pixels in diameter and using intensity to distinguish between clumped objects. The green channel was then segmented into GFP positive and negative areas and objects were labeled as GFP positive if at least 40% of it overlapped with a GFP positive area. The fraction of GFP-positive cells/mCherry-positive cells in each well was then calculated, and the green and red images were rescaled for visualization.
The degradation assay was performed as described above. […] Degradation was measured after 5 h of compound treatment and the concentrations that lead to half degradation at 5 h (DC50,5 h) were calculated using the nonlinear fit variable slope model (GraphPad Software).

IKZF1 = biological target: T2, IKZF1 (Homo sapiens, UniProt Q13422); assay: Cellular degradation assay, eGFP-IKZF1Δ fusion with mCherry reporter in Flp-In 293 cells; format: cell-based; conditions: for IKZF1 GFP/RFP Relative Abundance: 5 h incubation, n=1
T2 construct: expressed in transfected cells; host or cells: Flp-In 293
T2 sequence (Q13422 83-213 isoform Q13422-7 limits assumed): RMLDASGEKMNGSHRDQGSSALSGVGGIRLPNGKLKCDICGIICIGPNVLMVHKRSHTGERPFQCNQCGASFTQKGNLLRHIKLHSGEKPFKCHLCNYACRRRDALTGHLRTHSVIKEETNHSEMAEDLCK
T2 sequence (Q96SW2 whole entry partner, the tested form may be a part): as the sequence (Q96SW2 whole entry, the tested form may be a part) above
T2 sequence (Q16531 2-1140 partner limits assumed): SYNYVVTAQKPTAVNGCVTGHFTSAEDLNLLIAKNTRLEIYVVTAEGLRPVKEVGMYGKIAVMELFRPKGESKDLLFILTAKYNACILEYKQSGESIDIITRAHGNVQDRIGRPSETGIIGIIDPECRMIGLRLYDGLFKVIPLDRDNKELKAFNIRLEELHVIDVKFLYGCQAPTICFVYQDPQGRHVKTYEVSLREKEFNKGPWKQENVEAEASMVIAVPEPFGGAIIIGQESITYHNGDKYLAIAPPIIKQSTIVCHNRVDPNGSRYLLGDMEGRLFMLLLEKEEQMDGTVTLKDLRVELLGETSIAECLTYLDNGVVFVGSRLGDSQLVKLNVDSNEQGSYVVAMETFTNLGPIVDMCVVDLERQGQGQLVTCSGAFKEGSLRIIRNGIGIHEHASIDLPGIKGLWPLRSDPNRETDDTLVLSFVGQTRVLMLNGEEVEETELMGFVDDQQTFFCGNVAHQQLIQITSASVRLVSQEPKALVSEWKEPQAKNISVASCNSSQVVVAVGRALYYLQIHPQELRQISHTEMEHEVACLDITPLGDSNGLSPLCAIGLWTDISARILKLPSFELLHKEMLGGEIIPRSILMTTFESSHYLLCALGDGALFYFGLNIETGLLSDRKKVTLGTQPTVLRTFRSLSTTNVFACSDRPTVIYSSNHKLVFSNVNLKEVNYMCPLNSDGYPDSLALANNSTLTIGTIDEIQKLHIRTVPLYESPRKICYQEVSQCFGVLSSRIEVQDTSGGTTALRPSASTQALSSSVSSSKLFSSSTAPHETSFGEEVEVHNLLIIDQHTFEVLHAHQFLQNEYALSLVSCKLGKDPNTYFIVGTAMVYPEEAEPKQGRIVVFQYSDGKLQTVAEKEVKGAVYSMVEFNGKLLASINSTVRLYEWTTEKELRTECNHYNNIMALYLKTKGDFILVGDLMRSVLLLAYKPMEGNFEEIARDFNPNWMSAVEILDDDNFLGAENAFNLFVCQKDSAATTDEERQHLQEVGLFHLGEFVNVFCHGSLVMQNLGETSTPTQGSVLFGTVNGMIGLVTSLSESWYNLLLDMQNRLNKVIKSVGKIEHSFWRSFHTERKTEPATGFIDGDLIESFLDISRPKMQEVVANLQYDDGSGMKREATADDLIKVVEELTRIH
Procedure, shortened: (§1)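 DC50,5 h derived by variable-slope nonlinear fit of the per-well ratio of GFP-positive to mCherry-positive cells, imaged after 5 h compound exposure at 0.5% DMSO.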

IKZF2 = assay: Cellular degradation assay, eGFP-IKZF2Δ fusion with mCherry reporter in Flp-In 293 cells; format: cell-based; conditions: for IKZF2 GFP/RFP Relative Abundance: 5 h incubation, n=1
Procedure, shortened: as §1

[1] = compound concentration 6.6667E−05
[2] = compound concentration 6.6667E−06
[3] = compound concentration 6.6667E−07 (667 nM)
[4] = compound concentration 2.00E−05
[5] = compound concentration 2.00E−06
[6] = compound concentration 2.00E−07
[7] = half degradation at 5 h (DC50,5 h), triplicate, 11 point dose response

T1 sequence (Q96SW2 whole entry): as the sequence (Q96SW2 whole entry, the tested form may be a part) above
T1 sequence (Q9UKS7 whole entry): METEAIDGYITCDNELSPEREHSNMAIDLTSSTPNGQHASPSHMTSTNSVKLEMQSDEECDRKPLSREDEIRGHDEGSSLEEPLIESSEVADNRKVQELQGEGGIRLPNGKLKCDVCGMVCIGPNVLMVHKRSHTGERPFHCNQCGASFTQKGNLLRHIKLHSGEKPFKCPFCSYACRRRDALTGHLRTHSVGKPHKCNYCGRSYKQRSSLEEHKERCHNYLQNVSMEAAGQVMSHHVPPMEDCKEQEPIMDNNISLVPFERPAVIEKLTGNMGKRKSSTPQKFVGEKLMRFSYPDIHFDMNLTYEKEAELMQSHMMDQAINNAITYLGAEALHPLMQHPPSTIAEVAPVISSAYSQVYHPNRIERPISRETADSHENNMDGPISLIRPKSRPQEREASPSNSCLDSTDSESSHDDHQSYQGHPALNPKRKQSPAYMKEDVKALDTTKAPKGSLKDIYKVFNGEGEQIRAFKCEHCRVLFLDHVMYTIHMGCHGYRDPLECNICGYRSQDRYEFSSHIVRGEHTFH

O=C1CCC(N2C(=O)C=C(Nc3cccc(NC(=O)Nc4ccc(Cl)c(Cl)c4)c3)C2=O)C(=O)N1 (stereo not drawn) [Compound 56, 1-(3,4-dichlorophenyl)-3-(3-((1-(2,6-dioxopiperidin-3-yl)-2,5-dioxo-2,5-dihydro-1H-pyrrol-3-yl)amino)phenyl)urea]
TR-FRET-IKZF2 (Normalized to CC-885) (CRBN and Helios (IKZF2); [1]): 0.383 | TR-FRET-IKZF2 (Normalized to CC-885) (CRBN and Helios (IKZF2); [2]): 0.282 | TR-FRET-IKZF2 (Normalized to CC-885) (CRBN and Helios (IKZF2); [3]): 0.187 | GSPT1 GFP/RFP Relative Abundance (GSPT1; [4]): 1.572 | GSPT1 GFP/RFP Relative Abundance (GSPT1; [5]): 0.074 | GSPT1 GFP/RFP Relative Abundance (GSPT1; [6]): 0.112 | IKZF1 GFP/RFP Relative Abundance (IKZF1; [4]): 1.190 | IKZF1 GFP/RFP Relative Abundance (IKZF1; [5]): 0.319 | IKZF1 GFP/RFP Relative Abundance (IKZF1; [6]): 0.403 | IKZF2 GFP/RFP Relative Abundance (IKZF2; [4]): 1.092 | IKZF2 GFP/RFP Relative Abundance (IKZF2; [5]): 1.025 | IKZF2 GFP/RFP Relative Abundance (IKZF2; [6]): 0.983

Cc1ccc(NC(=O)/C=C/c2cccc(NC3=CC(=O)N(C4CCC(=O)NC4=O)C3=O)c2)cc1Cl (stereo not drawn) [Compound 57, (E)-N-(3-chloro-4-methylphenyl)-3-(3-((1-(2,6-dioxopiperidin-3-yl)-2,5-dioxo-2,5-dihydro-1H-pyrrol-3-yl)amino)phenyl)acrylamide]
TR-FRET-IKZF2 (Normalized to CC-885) (CRBN and Helios (IKZF2); [1]): 0.530 | TR-FRET-IKZF2 (Normalized to CC-885) (CRBN and Helios (IKZF2); [2]): 0.365 | TR-FRET-IKZF2 (Normalized to CC-885) (CRBN and Helios (IKZF2); [3]): 0.282 | GSPT1 GFP/RFP Relative Abundance (GSPT1; [4]): 0.385 | GSPT1 GFP/RFP Relative Abundance (GSPT1; [5]): 0.559 | GSPT1 GFP/RFP Relative Abundance (GSPT1; [6]): 0.779 | IKZF1 GFP/RFP Relative Abundance (IKZF1; [4]): 0.502 | IKZF1 GFP/RFP Relative Abundance (IKZF1; [5]): 0.214 | IKZF1 GFP/RFP Relative Abundance (IKZF1; [6]): 0.305 | IKZF2 GFP/RFP Relative Abundance (IKZF2; [4]): 0.843 | IKZF2 GFP/RFP Relative Abundance (IKZF2; [5]): 0.622 | IKZF2 GFP/RFP Relative Abundance (IKZF2; [6]): 0.656

Cc1ccc(NC(=O)NCc2cccc(NC3=CC(=O)N(C4CCC(=O)NC4=O)C3=O)c2)cc1C (stereo not drawn) [Compound 58, 1-(3,4-dimethylphenyl)-3-(3-((1-(2,6-dioxopiperidin-3-yl)-2,5-dioxo-2,5-dihydro-1H-pyrrol-3-yl)amino)benzyl)urea]
TR-FRET-IKZF2 (Normalized to CC-885) (CRBN and Helios (IKZF2); [1]): 1.184 | TR-FRET-IKZF2 (Normalized to CC-885) (CRBN and Helios (IKZF2); [2]): 1.061 | TR-FRET-IKZF2 (Normalized to CC-885) (CRBN and Helios (IKZF2); [3]): 0.927 | GSPT1 GFP/RFP Relative Abundance (GSPT1; [4]): 0.421 | GSPT1 GFP/RFP Relative Abundance (GSPT1; [5]): 0.603 | GSPT1 GFP/RFP Relative Abundance (GSPT1; [6]): 0.594 | IKZF1 GFP/RFP Relative Abundance (IKZF1; [4]): 0.075 | IKZF1 GFP/RFP Relative Abundance (IKZF1; [5]): 0.070 | IKZF1 GFP/RFP Relative Abundance (IKZF1; [6]): 0.074 | IKZF2 GFP/RFP Relative Abundance (IKZF2; [4]): 0.064 | IKZF2 GFP/RFP Relative Abundance (IKZF2; [5]): 0.077 | IKZF2 GFP/RFP Relative Abundance (IKZF2; [6]): 0.122

O=C1CCC(N2C(=O)C=C(Nc3cccc(CNC(=O)Nc4ccc(Cl)c(Cl)c4)c3)C2=O)C(=O)N1 (stereo not drawn) [Compound 59, 1-(3,4-dichlorophenyl)-3-(3-((1-(2,6-dioxopiperidin-3-yl)-2,5-dioxo-2,5-dihydro-1H-pyrrol-3-yl)amino)benzyl)urea]
TR-FRET-IKZF2 (Normalized to CC-885) (CRBN and Helios (IKZF2); [1]): 1.224 | TR-FRET-IKZF2 (Normalized to CC-885) (CRBN and Helios (IKZF2); [2]): 1.165 | TR-FRET-IKZF2 (Normalized to CC-885) (CRBN and Helios (IKZF2); [3]): 1.035 | GSPT1 GFP/RFP Relative Abundance (GSPT1; [4]): 0.247 | GSPT1 GFP/RFP Relative Abundance (GSPT1; [5]): 0.734 | GSPT1 GFP/RFP Relative Abundance (GSPT1; [6]): 0.952 | IKZF1 GFP/RFP Relative Abundance (IKZF1; [4]): 0.144 | IKZF1 GFP/RFP Relative Abundance (IKZF1; [5]): 0.097 | IKZF1 GFP/RFP Relative Abundance (IKZF1; [6]): 0.066 | IKZF2 GFP/RFP Relative Abundance (IKZF2; [4]): 0.099 | IKZF2 GFP/RFP Relative Abundance (IKZF2; [5]): 0.072 | IKZF2 GFP/RFP Relative Abundance (IKZF2; [6]): 0.108

Cc1ccc(CC(=O)NCc2cccc(NC3=CC(=O)N(C4CCC(=O)NC4=O)C3=O)c2)cc1C (stereo not drawn) [Compound 60, 2-(3,4-dimethylphenyl)-N-(3-((1-(2,6-dioxopiperidin-3-yl)-2,5-dioxo-2,5-dihydro-1H-pyrrol-3-yl)amino)benzyl)acetamide]
TR-FRET-IKZF2 (Normalized to CC-885) (CRBN and Helios (IKZF2); [1]): 1.082 | TR-FRET-IKZF2 (Normalized to CC-885) (CRBN and Helios (IKZF2); [2]): 0.945 | TR-FRET-IKZF2 (Normalized to CC-885) (CRBN and Helios (IKZF2); [3]): 0.833 | GSPT1 GFP/RFP Relative Abundance (GSPT1; [4]): 0.387 | GSPT1 GFP/RFP Relative Abundance (GSPT1; [5]): 0.558 | GSPT1 GFP/RFP Relative Abundance (GSPT1; [6]): 0.528 | IKZF1 GFP/RFP Relative Abundance (IKZF1; [4]): 0.132 | IKZF1 GFP/RFP Relative Abundance (IKZF1; [5]): 0.078 | IKZF1 GFP/RFP Relative Abundance (IKZF1; [6]): 0.091 | IKZF2 GFP/RFP Relative Abundance (IKZF2; [4]): 0.087 | IKZF2 GFP/RFP Relative Abundance (IKZF2; [5]): 0.151 | IKZF2 GFP/RFP Relative Abundance (IKZF2; [6]): 0.185

O=C(Cc1ccc(Cl)c(Cl)c1)NCc1cccc(NC2=CC(=O)N(C3CCC(=O)NC3=O)C2=O)c1 (stereo not drawn) [Compound 61, 2-(3,4-dichlorophenyl)-N-(3-((1-(2,6-dioxopiperidin-3-yl)-2,5-dioxo-2,5-dihydro-1H-pyrrol-3-yl)amino)benzyl)acetamide]
TR-FRET-IKZF2 (Normalized to CC-885) (CRBN and Helios (IKZF2); [1]): 1.465 | TR-FRET-IKZF2 (Normalized to CC-885) (CRBN and Helios (IKZF2); [2]): 1.248 | TR-FRET-IKZF2 (Normalized to CC-885) (CRBN and Helios (IKZF2); [3]): 1.201 | GSPT1 GFP/RFP Relative Abundance (GSPT1; [4]): 0.190 | GSPT1 GFP/RFP Relative Abundance (GSPT1; [5]): 0.466 | GSPT1 GFP/RFP Relative Abundance (GSPT1; [6]): 0.737 | IKZF1 GFP/RFP Relative Abundance (IKZF1; [4]): 0.111 | IKZF1 GFP/RFP Relative Abundance (IKZF1; [5]): 0.104 | IKZF1 GFP/RFP Relative Abundance (IKZF1; [6]): 0.103 | IKZF2 GFP/RFP Relative Abundance (IKZF2; [4]): 0.044 | IKZF2 GFP/RFP Relative Abundance (IKZF2; [5]): 0.045 | IKZF2 GFP/RFP Relative Abundance (IKZF2; [6]): 0.050

Cc1ccc(NC(=O)NCCc2cccc(NC3=CC(=O)N(C4CCC(=O)NC4=O)C3=O)c2)cc1Cl (stereo not drawn) [Compound 62, 1-(3-chloro-4-methylphenyl)-3-(3-((1-(2,6-dioxopiperidin-3-yl)-2,5-dioxo-2,5-dihydro-1H-pyrrol-3-yl)amino)phenethyl)urea]
TR-FRET-IKZF2 (Normalized to CC-885) (CRBN and Helios (IKZF2); [1]): 1.642 | TR-FRET-IKZF2 (Normalized to CC-885) (CRBN and Helios (IKZF2); [2]): 1.563 | TR-FRET-IKZF2 (Normalized to CC-885) (CRBN and Helios (IKZF2); [3]): 1.483 | GSPT1 GFP/RFP Relative Abundance (GSPT1; [4]): 0.353 | GSPT1 GFP/RFP Relative Abundance (GSPT1; [5]): 1.021 | GSPT1 GFP/RFP Relative Abundance (GSPT1; [6]): 1.208 | DC50 (GSPT1; [7]): > 1000 nM | IKZF1 GFP/RFP Relative Abundance (IKZF1; [4]): 0.133 | IKZF1 GFP/RFP Relative Abundance (IKZF1; [5]): 0.098 | IKZF1 GFP/RFP Relative Abundance (IKZF1; [6]): 0.109 | DC50 (IKZF1; [7]): 26 nM | IKZF2 GFP/RFP Relative Abundance (IKZF2; [4]): 0.040 | IKZF2 GFP/RFP Relative Abundance (IKZF2; [5]): 0.015 | IKZF2 GFP/RFP Relative Abundance (IKZF2; [6]): 0.036 | DC50 (IKZF2; [7]): 29 nM
